# Legend:
# ECHCG = test: Post-emergence herbicidal action against ECHCG; assay type: in vivo, Echinochloa crus-galli; conditions: application rate 80 g/ha, rated visually after about 3 weeks
# Summary of the method: (§1)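 Greenhouse post-emergence test: compound sprayed onto green plant parts at one-leaf stage as WP or EC preparation with 0.5% additive, water rate 600 l/ha. Percent activity scored by eye after roughly 3 weeks, where 0% matches controls and 100% means death.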
# AMARE = test: Post-emergence herbicidal action against AMARE; assay type: in vivo, Amaranthus retroflexus; conditions: application rate 80 g/ha, rated visually about 3 weeks after treatment
# Summary of the method: as §1
# POLCO = test: Post-emergence herbicidal action against POLCO; assay type: in vivo, Polygonum convolvulus; conditions: application rate 80 g/ha, rated visually about 3 weeks after treatment
# Summary of the method: as §1
# VIOTR = test: Post-emergence herbicidal action against VIOTR; assay type: in vivo, Viola tricolor; conditions: application rate 80 g/ha, rated visually about 3 weeks after treatment
# Method: [table] 2. Post-emergence herbicidal action against harmful plants and crop plant compatibility Seeds of monocotyledonous and dicotyledonous weeds and crop plants are placed in sandy loam in plastic or wood-fibre pots, covered with soil and cultivated in a greenhouse under controlled growth conditions. 2 to 3 weeks after sowing, the test plants are treated at the one-leaf stage. The compounds of the invention, formulated in the form of wettable powders (WP) or as emulsion concentrates (EC), are then sprayed onto the green parts of the plants as aqueous suspension or emulsion with addition of 0.5% additive at a water application rate of 600 l/ha (converted). After the test plants have been kept in the greenhouse under optimum growth conditions for about 3 weeks, the activity of the preparations is rated visually in comparison to untreated controls. For example, 100% activity=the plants have died, 0% activity=like control plants.
# PHBPU = test: Post-emergence herbicidal action against PHBPU; assay type: in vivo, Pharbitis purpurea; conditions: application rate 80 g/ha, rated visually about 3 weeks after treatment
# Summary of the method: as §1
# AVEFA = test: Post-emergence herbicidal action against AVEFA; assay type: in vivo, Avena fatua; conditions: application rate 80 g/ha, rated visually after about 3 weeks
# Summary of the method: as §1
# LOLRI = test: Post-emergence herbicidal action against LOLRI; assay type: in vivo, Lolium rigidum; conditions: application rate 80 g/ha, rated visually after about 3 weeks
# Summary of the method: as §1
# SETVI = test: Post-emergence herbicidal action against SETVI; assay type: in vivo, Setaria viridis; conditions: application rate 80 g/ha, rated visually after about 3 weeks
# Summary of the method: as §1
# VERPE = test: Post-emergence herbicidal action against VERPE; assay type: in vivo, Veronica persica; conditions: application rate 80 g/ha
# Summary of the method: as §1
# ABUTH = test: Post-emergence herbicidal action against ABUTH; assay type: in vivo, Abutilon theophrasti; conditions: application rate 80 g/ha, rated visually about 3 weeks after treatment
# Summary of the method: as §1
# HORMU = test: Post-emergence herbicidal action against HORMU; assay type: in vivo, Hordeum murinum; conditions: application rate 80 g/ha
# Summary of the method: as §1
# STEME = test: Post-emergence herbicidal action against STEME; assay type: in vivo, Stellaria media; conditions: application rate 80 g/ha, rated visually about 3 weeks after treatment
# Summary of the method: as §1
# ALOMY = test: Post-emergence herbicidal action against ALOMY; assay type: in vivo, Alopecurus myosuroides; conditions: application rate 80 g/ha, rated visually after about 3 weeks
# Summary of the method: as §1
Compound,Herbicidal action against [%] ECHCG (ECHCG),Herbicidal action against [%] AMARE (AMARE),Herbicidal action against [%] POLCO (POLCO),Herbicidal action against [%] VIOTR (VIOTR),Herbicidal action against [%] PHBPU (PHBPU),Herbicidal action against [%] AVEFA (AVEFA),Herbicidal action against [%] LOLRI (LOLRI),Herbicidal action against [%] SETVI (SETVI),Herbicidal action against [%] VERPE (VERPE),Herbicidal action against [%] ABUTH (ABUTH),Herbicidal action against [%] HORMU (HORMU),Herbicidal action against [%] STEME (STEME),Herbicidal action against [%] ALOMY (ALOMY)
N#Cc1cccc(C2=NOC(C(=O)NC3C=CC(C(=O)OCCCl)C3)(C(F)(F)F)C2)c1 (mixture of isomers) [Example I-088],90%,90%,90%,90%,90%,100%,100%,90%,90%,90%,90%,90%,–
N#Cc1cc(F)cc(C2=NOC(C(=O)NC3C=CC(C(=O)O)C3)(C(F)(F)F)C2)c1 (mixture of isomers) [Example I-090],80%,90%,90%,90%,90%,100%,100%,90%,90%,90%,100%,90%,100%
CC(C)(C#N)NC(=O)C1C=CC(NC(=O)C2(C(F)(F)F)CC(c3cc(F)cc(F)c3)=NO2)C1 (mixture of isomers) [II-34],80%,90%,90%,90%,90%,100%,90%,80%,90%,80%,80%,90%,90%
CC(C)C(C#N)NC(=O)C1C=CC(NC(=O)C2(C(F)(F)F)CC(c3cc(F)cc(F)c3)=NO2)C1 (mixture of isomers) [II-35],–,90%,90%,90%,90%,100%,90%,80%,90%,80%,80%,90%,90%
N#Cc1cc(F)cc(C2=NOC(C(=O)N[C@H]3C=C[C@@H](C(=O)OCC(F)(F)F)C3)(C(F)(F)F)C2)c1 (stereo partly drawn) [Example I-096],80%,90%,90%,90%,90%,100%,100%,80%,90%,90%,100%,90%,100%
CC1(C(=O)N[C@H]2CC=C(C(=O)OCc3ccccc3)C2)CC(c2cc(F)cc(F)c2)=NO1 (stereo partly drawn) [III-12],–,90%,90%,90%,90%,100%,100%,80%,90%,90%,100%,80%,100%
C=CC1(C(=O)N[C@H]2CC=C(C(=O)OCCOCC)C2)CC(c2cc(F)cc(F)c2)=NO1 (stereo partly drawn) [III-16],90%,90%,90%,90%,90%,100%,100%,80%,80%,80%,90%,80%,–

# — patent publication US12319664B2, “Herbicidally active 3-phenylisoxazoline-5-carboxamides of cyclopentenylcarboxylic acid derivatives” (Bayer Aktiengesellschaft, priority 2018, dated 2025)
